A value given as a limit tells only on which side of the number the result lay.

Assay type in all cases: biochemical
The target in one assay is T1, PI3Kα (Homo sapiens, UniProt P42336).
T1 construct: purchased Millipore Ltd (Billerica, Mass.)
The assay is described as follows: In vitro determination of the PI3K enzyme inhibitory activity in the cell free assay (ADP-Glo Kinase Assay), PI3Kα. The following applies: ATP 50 μM, read-out: PI3K alpha inhibition. On the procedure:
(§1) In vitro Determination of the PI3K Enzyme Inhibitory Activity in the Cell Free Assay
(§2) Human recombinant proteins PI3Kα, PI3Kβ, PI3Kγ and PI3Kδ were purchased from Millipore Ltd (Billerica, Mass.). Compounds were dissolved at 0.5 mM in DMSO and were tested at different concentrations for their activity against PI3Ks using the ADP-Glo™ Kinase Assay (Promega, Madison Wis.) according to the manufacturer's instructions.
(§3) Briefly, the kinase reactions were performed in 384-well white plates (Greiner Bio-One GmbH, Frickenhausen). Each well was loaded with 0.1 μl of test compounds and 2.5 μl of 2× reaction buffer (40 mM Tris pH7.5, 0.5 mM EGTA, 0.5 mM Na3VO4, 5 mM β-glycerophosphate, 0.1 mg/ml BSA, 1 mM DTT), containing 50 μM PI and PS substrates (L-α-phosphatidylinositol sodium salt and L-α-phosphatidyl-L-serine, Sigma-Aldrich, St. Louis Mo.) and the PI3K recombinant proteins (PI3Kγ 0.25 ng/μl, PI3Kδ 1 ng/μl, PI3Kα 0.125 ng/μl, PI3Kβ 1 ng/μl).
(§4) The reactions were started by adding 2.5 μl of 2×ATP solution to each well (final concentrations: PI3Kγ ATP 30 μM; PI3Kδ ATP 80 μM; PI3KαATP 50 μM; PI3Kβ ATP 100 μM) and incubated for 60 min at room temperature. Subsequently, each kinase reaction was incubated for 40 min with 5 μl ADP-Glo™ Reagent, allowing depletion of unconsumed ATP. Then, the Kinase Detection Reagent (10 μl) was added in each well to convert ADP to ATP and to allow the newly synthesized ATP to be measured using a luciferase/luciferin reaction. Following 60 min incubation, the luminescence signal was measured using a Wallac EnVision® multilabel reader (PerkinElmer, Waltham Mass.).
(§5) Curve fitting and IC50 calculation were carried out using a four-parameter logistic model in XLfit (IDBS, Guilford, UK) for Microsoft Excel (Microsoft, Redmont, Wash.).

Another assay concerns the target T2, PI3Kβ (Homo sapiens, UniProt P42338).
T2 construct: purchased Millipore Ltd (Billerica, Mass.)
The assay is described as follows: In vitro determination of the PI3K enzyme inhibitory activity in the cell free assay (ADP-Glo Kinase Assay), PI3Kβ. The settings on record: ATP 100 μM, read-out: PI3K beta inhibition. On the procedure:
as §1, §2, §3, §4, §5
On the technique in general: In ADP-Glo the light output rises with the ADP produced.

In the next assay the target is T3, PI3Kγ (Homo sapiens, UniProt P48736).
T3 construct: purchased Millipore Ltd (Billerica, Mass.)
T3 sequence (P48736 whole entry): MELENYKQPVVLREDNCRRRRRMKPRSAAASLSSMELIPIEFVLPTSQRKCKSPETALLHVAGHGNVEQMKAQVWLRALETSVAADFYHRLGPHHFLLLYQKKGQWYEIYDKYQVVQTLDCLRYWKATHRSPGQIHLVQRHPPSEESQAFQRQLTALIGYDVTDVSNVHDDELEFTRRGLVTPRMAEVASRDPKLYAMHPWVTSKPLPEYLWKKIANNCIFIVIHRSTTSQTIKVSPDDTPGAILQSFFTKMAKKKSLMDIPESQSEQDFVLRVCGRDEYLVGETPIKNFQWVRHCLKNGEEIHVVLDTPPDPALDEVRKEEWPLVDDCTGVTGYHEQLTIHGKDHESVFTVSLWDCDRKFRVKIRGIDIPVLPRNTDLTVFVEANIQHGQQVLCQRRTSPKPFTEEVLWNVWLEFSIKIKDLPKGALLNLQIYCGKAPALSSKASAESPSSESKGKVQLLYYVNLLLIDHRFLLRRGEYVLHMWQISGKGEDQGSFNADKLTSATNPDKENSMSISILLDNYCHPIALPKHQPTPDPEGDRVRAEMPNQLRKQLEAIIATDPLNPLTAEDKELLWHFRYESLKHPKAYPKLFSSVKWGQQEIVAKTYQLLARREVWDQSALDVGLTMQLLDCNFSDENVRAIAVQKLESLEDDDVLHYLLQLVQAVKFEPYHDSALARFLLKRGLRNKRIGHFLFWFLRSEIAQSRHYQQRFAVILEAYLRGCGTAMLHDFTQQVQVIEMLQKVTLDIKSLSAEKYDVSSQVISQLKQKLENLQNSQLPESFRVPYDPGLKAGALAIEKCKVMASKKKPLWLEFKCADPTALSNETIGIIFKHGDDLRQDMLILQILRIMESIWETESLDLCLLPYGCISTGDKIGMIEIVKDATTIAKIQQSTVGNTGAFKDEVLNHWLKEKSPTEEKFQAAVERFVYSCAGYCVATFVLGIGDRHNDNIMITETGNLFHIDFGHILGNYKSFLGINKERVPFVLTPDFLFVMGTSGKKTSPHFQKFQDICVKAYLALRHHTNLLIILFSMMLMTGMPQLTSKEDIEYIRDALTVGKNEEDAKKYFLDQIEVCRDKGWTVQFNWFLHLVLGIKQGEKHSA
The assay is described as follows: In vitro determination of the PI3K enzyme inhibitory activity in the cell free assay (ADP-Glo Kinase Assay), PI3Kγ. The settings on record: ATP 30 μM, read-out: PI3K gamma inhibition. On the procedure: as §1, §2, §3, §4, §5

The target of another assay is T4, PI3Kδ (Homo sapiens, UniProt O00329).
T4 construct: purchased Millipore Ltd (Billerica, Mass.)
T4 sequence (O00329 whole entry): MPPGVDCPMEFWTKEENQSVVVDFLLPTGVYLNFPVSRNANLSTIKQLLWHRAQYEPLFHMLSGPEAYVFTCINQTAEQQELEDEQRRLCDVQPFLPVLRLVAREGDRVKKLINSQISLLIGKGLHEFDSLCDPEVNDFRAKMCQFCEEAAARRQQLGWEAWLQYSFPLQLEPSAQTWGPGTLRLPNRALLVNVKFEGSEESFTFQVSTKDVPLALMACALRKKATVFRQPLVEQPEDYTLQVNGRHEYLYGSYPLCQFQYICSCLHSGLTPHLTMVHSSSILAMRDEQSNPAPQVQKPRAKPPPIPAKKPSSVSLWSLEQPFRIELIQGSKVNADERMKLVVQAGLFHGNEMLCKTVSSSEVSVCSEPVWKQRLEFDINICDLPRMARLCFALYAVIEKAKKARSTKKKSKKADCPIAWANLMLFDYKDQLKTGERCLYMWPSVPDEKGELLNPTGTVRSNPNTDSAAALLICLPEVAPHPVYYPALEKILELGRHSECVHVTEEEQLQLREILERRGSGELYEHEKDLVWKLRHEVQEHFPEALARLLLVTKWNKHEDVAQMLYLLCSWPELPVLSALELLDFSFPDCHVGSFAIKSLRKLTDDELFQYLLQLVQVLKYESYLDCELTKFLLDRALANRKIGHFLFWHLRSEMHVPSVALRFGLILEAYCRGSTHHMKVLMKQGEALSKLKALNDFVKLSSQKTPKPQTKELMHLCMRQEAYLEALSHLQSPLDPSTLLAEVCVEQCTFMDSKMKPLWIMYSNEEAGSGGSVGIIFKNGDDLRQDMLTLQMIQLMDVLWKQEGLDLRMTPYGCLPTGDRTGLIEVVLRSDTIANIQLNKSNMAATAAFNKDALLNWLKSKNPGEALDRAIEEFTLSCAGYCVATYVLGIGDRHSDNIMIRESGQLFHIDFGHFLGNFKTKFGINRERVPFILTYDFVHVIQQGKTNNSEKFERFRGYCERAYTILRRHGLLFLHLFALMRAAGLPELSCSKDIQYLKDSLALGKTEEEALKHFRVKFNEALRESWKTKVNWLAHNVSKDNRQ
T4 sequence (P27986 whole entry partner): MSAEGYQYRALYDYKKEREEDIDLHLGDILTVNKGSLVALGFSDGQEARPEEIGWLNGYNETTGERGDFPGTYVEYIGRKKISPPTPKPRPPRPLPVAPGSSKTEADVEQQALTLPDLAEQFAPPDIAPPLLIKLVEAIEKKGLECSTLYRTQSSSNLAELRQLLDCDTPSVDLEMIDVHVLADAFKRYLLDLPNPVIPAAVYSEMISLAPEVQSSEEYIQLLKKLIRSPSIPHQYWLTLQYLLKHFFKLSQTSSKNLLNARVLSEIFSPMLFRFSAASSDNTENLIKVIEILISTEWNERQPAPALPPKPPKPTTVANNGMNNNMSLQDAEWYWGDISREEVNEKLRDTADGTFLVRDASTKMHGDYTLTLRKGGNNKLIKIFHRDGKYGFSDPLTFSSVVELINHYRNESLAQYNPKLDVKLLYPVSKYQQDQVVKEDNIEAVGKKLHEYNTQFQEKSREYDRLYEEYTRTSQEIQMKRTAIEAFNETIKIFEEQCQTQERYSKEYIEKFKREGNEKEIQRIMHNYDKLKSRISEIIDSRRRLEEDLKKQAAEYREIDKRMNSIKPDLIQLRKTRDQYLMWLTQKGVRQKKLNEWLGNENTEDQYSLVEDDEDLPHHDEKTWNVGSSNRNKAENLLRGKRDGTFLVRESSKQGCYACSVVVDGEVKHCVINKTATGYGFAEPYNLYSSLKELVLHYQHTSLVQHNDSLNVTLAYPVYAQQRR
The assay is described as follows: In vitro determination of the PI3K enzyme inhibitory activity in the cell free assay (ADP-Glo Kinase Assay), PI3Kδ. The following applies: ATP 80 μM, read-out: PI3K delta inhibition. On the procedure:
as §1, §2, §3, §4, §5

T1 sequence (P42336 whole entry): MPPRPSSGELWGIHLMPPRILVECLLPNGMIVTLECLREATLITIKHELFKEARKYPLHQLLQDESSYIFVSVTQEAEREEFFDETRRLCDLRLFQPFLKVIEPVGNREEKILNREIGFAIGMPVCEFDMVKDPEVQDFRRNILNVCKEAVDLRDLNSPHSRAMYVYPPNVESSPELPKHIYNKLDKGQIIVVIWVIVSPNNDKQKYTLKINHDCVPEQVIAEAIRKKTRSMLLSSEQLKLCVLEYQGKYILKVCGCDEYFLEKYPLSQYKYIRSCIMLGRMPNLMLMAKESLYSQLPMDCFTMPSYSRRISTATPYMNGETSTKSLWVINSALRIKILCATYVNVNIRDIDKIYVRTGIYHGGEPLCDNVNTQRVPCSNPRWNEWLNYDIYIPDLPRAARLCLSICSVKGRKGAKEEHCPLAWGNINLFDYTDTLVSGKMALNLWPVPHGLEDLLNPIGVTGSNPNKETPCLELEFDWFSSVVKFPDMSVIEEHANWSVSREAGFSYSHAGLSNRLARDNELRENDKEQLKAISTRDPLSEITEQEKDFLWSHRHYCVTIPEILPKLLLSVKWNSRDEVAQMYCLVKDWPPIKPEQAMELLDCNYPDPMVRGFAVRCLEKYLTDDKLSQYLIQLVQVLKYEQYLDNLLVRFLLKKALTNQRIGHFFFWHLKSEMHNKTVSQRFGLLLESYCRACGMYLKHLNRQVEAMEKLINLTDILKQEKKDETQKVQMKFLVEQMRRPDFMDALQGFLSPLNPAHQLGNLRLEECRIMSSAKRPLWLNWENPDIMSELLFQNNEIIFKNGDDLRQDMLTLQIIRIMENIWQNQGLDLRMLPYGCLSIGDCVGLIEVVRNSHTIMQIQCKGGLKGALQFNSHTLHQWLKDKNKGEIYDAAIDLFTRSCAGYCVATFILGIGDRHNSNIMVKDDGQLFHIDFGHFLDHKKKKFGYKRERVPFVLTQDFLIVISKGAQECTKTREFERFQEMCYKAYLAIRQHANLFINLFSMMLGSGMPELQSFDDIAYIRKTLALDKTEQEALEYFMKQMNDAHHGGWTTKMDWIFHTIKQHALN
T1 sequence (P27986 whole entry partner): as the sequence (P27986 whole entry partner) above
T2 sequence (P42338 whole entry): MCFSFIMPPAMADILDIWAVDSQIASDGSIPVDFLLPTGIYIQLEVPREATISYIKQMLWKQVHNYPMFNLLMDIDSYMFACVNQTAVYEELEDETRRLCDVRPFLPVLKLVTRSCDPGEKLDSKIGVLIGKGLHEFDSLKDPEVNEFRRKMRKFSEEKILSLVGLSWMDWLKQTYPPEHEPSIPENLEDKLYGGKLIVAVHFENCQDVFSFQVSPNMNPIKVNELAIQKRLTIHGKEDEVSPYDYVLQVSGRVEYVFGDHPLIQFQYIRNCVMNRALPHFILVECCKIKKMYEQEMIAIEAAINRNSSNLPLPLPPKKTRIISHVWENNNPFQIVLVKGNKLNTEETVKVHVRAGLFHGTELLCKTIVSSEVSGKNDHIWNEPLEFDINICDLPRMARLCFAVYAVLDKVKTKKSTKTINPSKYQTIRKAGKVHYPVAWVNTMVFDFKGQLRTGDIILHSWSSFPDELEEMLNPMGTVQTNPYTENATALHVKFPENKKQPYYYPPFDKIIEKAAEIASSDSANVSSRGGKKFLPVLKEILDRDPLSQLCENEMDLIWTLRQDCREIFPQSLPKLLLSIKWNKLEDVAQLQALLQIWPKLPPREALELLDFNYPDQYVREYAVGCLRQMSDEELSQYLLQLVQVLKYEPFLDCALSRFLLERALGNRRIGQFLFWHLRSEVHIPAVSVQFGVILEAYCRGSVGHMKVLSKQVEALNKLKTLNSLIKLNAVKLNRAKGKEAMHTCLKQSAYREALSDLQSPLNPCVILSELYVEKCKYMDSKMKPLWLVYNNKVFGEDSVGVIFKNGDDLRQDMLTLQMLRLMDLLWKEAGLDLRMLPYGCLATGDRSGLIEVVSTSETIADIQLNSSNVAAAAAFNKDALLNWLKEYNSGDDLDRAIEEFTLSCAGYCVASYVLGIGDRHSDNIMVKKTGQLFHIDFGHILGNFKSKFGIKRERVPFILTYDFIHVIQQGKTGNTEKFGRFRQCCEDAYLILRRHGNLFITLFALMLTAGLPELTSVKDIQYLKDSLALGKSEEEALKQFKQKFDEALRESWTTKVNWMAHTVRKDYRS
T2 sequence (P27986 whole entry partner): as the sequence (P27986 whole entry partner) above

For `C[C@H](c1cc2ccccn2c1-c1cccc(CN(C)C)c1)n1nc(-c2cc(O)cc(F)c2)c2c(N)ncnc21` (single isomer, unassigned) [Example 93a, 3-{4-amino-1-[1-(3-{3-[(dimethylamino)methyl]phenyl}indolizin-2-yl)ethyl]-1H-pyrazolo[3,4-d]pyrimidin-3-yl}-5-fluorophenol], the IC50 at PI3Kα was 0.01 to 1 µM; at PI3Kβ, 0.01 to 1 µM; on PI3Kγ, greater than 1 µM; on PI3Kδ it was less than 0.01 µM.
With `C[C@H](c1cc2ccccn2c1-c1cccc(CN(C)C)c1)n1nc(-c2cc(O)cc(F)c2)c2c(N)ncnc21` (single isomer, unassigned) [Example 93b, 3-{4-amino-1-[1-(3-{3-[(dimethylamino)methyl]phenyl}indolizin-2-yl)ethyl]-1H-pyrazolo[3,4-d]pyrimidin-3-yl}-5-fluorophenol], the IC50 on PI3Kα was greater than 1 µM; at PI3Kβ, 0.01 to 1 µM; at PI3Kγ it was greater than 1 µM; on PI3Kδ, 0.01 to 1 µM.
With `C[C@H](c1cc2ccccn2c1-c1ccc(CN2CCOCC2)cn1)n1nc(-c2cc(O)cc(F)c2)c2c(N)ncnc21` (single isomer, unassigned) [Example 108a, 3-[4-amino-1-(1-{3-[5-(morpholin-4-ylmethyl)pyridin-2-yl]indolizin-2-yl}ethyl)-1H-pyrazolo[3,4-d]pyrimidin-3-yl]-5-fluorophenol], the IC50 was greater than 1 µM on PI3Kα, 0.01 to 1 µM on PI3Kβ, greater than 1 µM at PI3Kγ and less than 0.01 µM on PI3Kδ.
Consider `C[C@H](c1cc2ccccn2c1-c1ccc(CN2CCOCC2)cn1)n1nc(-c2cc(O)cc(F)c2)c2c(N)ncnc21` (single isomer, unassigned) [Example 108b, 3-[4-amino-1-(1-{3-[5-(morpholin-4-ylmethyl)pyridin-2-yl]indolizin-2-yl}ethyl)-1H-pyrazolo[3,4-d]pyrimidin-3-yl]-5-fluorophenol], for which the IC50 is greater than 1 µM on PI3Kα, 0.01 to 1 µM on PI3Kβ, greater than 1 µM at PI3Kγ and less than 0.01 µM on PI3Kδ.
With `C[C@H](c1cc2ccccn2c1-c1ccc(CN2CCN(C)CC2)cn1)n1nc(-c2cc(O)cc(F)c2)c2c(N)ncnc21` (single isomer, unassigned) [Example 114a, 3-{4-amino-1-[1-(3-{5-[(4-methylpiperazin-1-yl)methyl]pyridin-2-yl}indolizin-2-yl)ethyl]-1H-pyrazolo[3,4-d]pyrimidin-3-yl}-5-fluorophenol], the IC50 on PI3Kα was 0.01 to 1 µM; at PI3Kβ, 0.01 to 1 µM; on PI3Kγ, 0.01 to 1 µM; on PI3Kδ, less than 0.01 µM.
Regarding `C[C@H](c1cc2ccccn2c1-c1ccc(CN2CCN(C)CC2)cn1)n1nc(-c2cc(O)cc(F)c2)c2c(N)ncnc21` (single isomer, unassigned) [Example 114b, 3-{4-amino-1-[1-(3-{5-[(4-methylpiperazin-1-yl)methyl]pyridin-2-yl}indolizin-2-yl)ethyl]-1H-pyrazolo[3,4-d]pyrimidin-3-yl}-5-fluorophenol], the IC50 at PI3Kα is 0.01 to 1 µM; on PI3Kβ, 0.01 to 1 µM; at PI3Kγ, 0.01 to 1 µM; on PI3Kδ, less than 0.01 µM.
As for `C[C@H](c1cc2ccccn2c1-c1ccc(CN(CCO)CCO)cn1)n1nc(-c2cc(O)cc(F)c2)c2c(N)ncnc21` (single isomer, unassigned) [Example 117a, 3-(4-amino-1-{1-[3-(5-{[bis(2-hydroxyethyl)amino]methyl}pyridin-2-yl)indolizin-2-yl]ethyl}-1H-pyrazolo[3,4-d]pyrimidin-3-yl)-5-fluorophenol], the IC50 on PI3Kα was 0.01 to 1 µM; at PI3Kβ, 0.01 to 1 µM; on PI3Kγ, greater than 1 µM; on PI3Kδ, less than 0.01 µM.
For the compound `C[C@H](c1cc2ccccn2c1-c1ccc(CN(CCO)CCO)cn1)n1nc(-c2cc(O)cc(F)c2)c2c(N)ncnc21` (single isomer, unassigned) [Example 117b, 3-(4-amino-1-{1-[3-(5-{[bis(2-hydroxyethyl)amino]methyl}pyridin-2-yl)indolizin-2-yl]ethyl}-1H-pyrazolo[3,4-d]pyrimidin-3-yl)-5-fluorophenol], the IC50 at PI3Kα was 0.01 to 1 µM; on PI3Kβ it was 0.01 to 1 µM; on PI3Kγ, greater than 1 µM; on PI3Kδ, less than 0.01 µM.
As for `C[C@H](c1cc2ccccn2c1-c1ccn(CCN2CCOCC2)c(=O)c1)n1nc(-c2cc(O)cc(F)c2)c2c(N)ncnc21` (single isomer, unassigned) [Example 121a, 4-(2-{1-[4-amino-3-(3-fluoro-5-hydroxyphenyl)-1H-pyrazolo[3,4-d]pyrimidin-1-yl]ethyl}indolizin-3-yl)-1-[2-(morpholin-4-yl)ethyl]-1,2-dihydropyridin-2-one], the IC50 on PI3Kα is greater than 1 µM; at PI3Kβ it was greater than 1 µM; on PI3Kγ, greater than 1 µM; at PI3Kδ, 0.01 to 1 µM.
Regarding `C[C@H](c1cc2ccccn2c1-c1ccn(CCN2CCOCC2)c(=O)c1)n1nc(-c2cc(O)cc(F)c2)c2c(N)ncnc21` (single isomer, unassigned) [Example 121b, 4-(2-{1-[4-amino-3-(3-fluoro-5-hydroxyphenyl)-1H-pyrazolo[3,4-d]pyrimidin-1-yl]ethyl}indolizin-3-yl)-1-[2-(morpholin-4-yl)ethyl]-1,2-dihydropyridin-2-one], the IC50 at PI3Kα is 0.01 to 1 µM; on PI3Kβ, 0.01 to 1 µM; at PI3Kγ, 0.01 to 1 µM; at PI3Kδ it was less than 0.01 µM.
With `C[C@H](c1c(C#N)c2ccccn2c1-c1cccc(CN(C)C)c1)n1nc(-c2cc(O)cc(F)c2)c2c(N)ncnc21` (single isomer, unassigned) [Example 127a, 2-{1-[4-amino-3-(3-fluoro-5-hydroxyphenyl)-1H-pyrazolo[3,4-d]pyrimidin-1-yl]ethyl}-3-{3-[(dimethylamino)methyl]phenyl}indolizine-1-carbonitrile], the IC50 is 0.01 to 1 µM at PI3Kα, 0.01 to 1 µM on PI3Kβ, 0.01 to 1 µM on PI3Kγ and less than 0.01 µM at PI3Kδ.
Regarding `C[C@H](c1c(C#N)c2ccccn2c1-c1cccc(CN(C)C)c1)n1nc(-c2cc(O)cc(F)c2)c2c(N)ncnc21` (single isomer, unassigned) [Example 127b, 2-{1-[4-amino-3-(3-fluoro-5-hydroxyphenyl)-1H-pyrazolo[3,4-d]pyrimidin-1-yl]ethyl}-3-{3-[(dimethylamino)methyl]phenyl}indolizine-1-carbonitrile], the IC50 at PI3Kα was greater than 1 µM; at PI3Kβ, greater than 1 µM; on PI3Kγ, greater than 1 µM; at PI3Kδ it was less than 0.01 µM.
For the compound `CC(c1cc2ccccn2c1-c1ccn(CCN(C)C)c(=O)c1)n1nc(-c2cc(O)cc(F)c2)c2c(N)ncnc21` (single isomer, unassigned) [Example 133a, 4-(2-{1-[4-amino-3-(3-fluoro-5-hydroxyphenyl)-1H-pyrazolo[3,4-d]pyrimidin-1-yl]ethyl}indolizin-3-yl)-1-[2-(dimethylamino)ethyl]-1,2-dihydropyridin-2-one], the IC50 on PI3Kα is greater than 1 µM; at PI3Kβ, greater than 1 µM; at PI3Kγ, greater than 1 µM; at PI3Kδ, 0.01 to 1 µM.
For `CC(c1cc2ccccn2c1-c1ccn(CCN(C)C)c(=O)c1)n1nc(-c2cc(O)cc(F)c2)c2c(N)ncnc21` (single isomer, unassigned) [Example 133b, 4-(2-{1-[4-amino-3-(3-fluoro-5-hydroxyphenyl)-1H-pyrazolo[3,4-d]pyrimidin-1-yl]ethyl}indolizin-3-yl)-1-[2-(dimethylamino)ethyl]-1,2-dihydropyridin-2-one], the IC50 on PI3Kα was 0.01 to 1 µM; on PI3Kβ, 0.01 to 1 µM; on PI3Kγ, 0.01 to 1 µM; at PI3Kδ, less than 0.01 µM.
Consider `Nc1ncnc2c1ncn2Cc1cc2ccccn2c1-c1ccccc1` [Example 1, 9-[(3-phenylindolizin-2-yl)methyl]-9H-purin-6-amine], for which the IC50 on PI3Kα, on PI3Kβ, at PI3Kγ and on PI3Kδ was greater than 1 µM throughout.
In the case of `Nc1ncn(Cc2cc3ccccn3c2-c2ccccc2)c2ncnc1-2` [Example 2, 3-[(3-phenylindolizin-2-yl)methyl]-3H-purin-6-amine], the IC50 on PI3Kα, on PI3Kβ, on PI3Kγ and at PI3Kδ was greater than 1 µM in each case.
Turning to `Nc1ncnc2c1ncn2Cc1cc2ccccn2c1-c1ccccn1` [Example 3, 9-{[3-(pyridin-2-yl)indolizin-2-yl]methyl}-9H-purin-6-amine], the IC50 at PI3Kα, at PI3Kβ, at PI3Kγ and at PI3Kδ was greater than 1 µM each time.

The values are drawn from patent publication US9527869B2, “Indolizine derivatives as phoshoinositide 3-kinases inhibitors” (CHIESI FARMACEUTICI S.P.A., priority 2014, dated 2016).
